Measured values reported in the supplement of paper PMC10307832.

How the values were obtained:
Experiment in all cases: relative viability (nuclei count vs DMSO), 5 days (fraction); higher = more cells survive
NVP-TAE684 + Trametinib = compound: COc1cc(N2CCC(N3CCN(C)CC3)CC2)ccc1Nc1ncc(Cl)c(Nc2ccccc2S(=O)(=O)C(C)C)n1 [NVP-TAE684] + CC(=O)Nc1cccc(-n2c(=O)n(C3CC3)c(=O)c3c(Nc4ccc(I)cc4F)n(C)c(=O)c(C)c32)c1 [Trametinib] (partner 0.02 µM)
In short: (§1)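 One day after seeding in 1536-well plates, lung cancer cell lines were dosed by pin tool. Dosing was either single-drug or a fixed anchor-drug dose plus five library-drug doses (not always all listed) in √10 steps. After 5 days, nuclei were stained in one fix-and-stain step and counted on 4× images, and relative viability is the nuclei count of treated wells over that of vehicle wells, given as the median of duplicate plates.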

Vandetanib + AZD7762 = compound: COc1cc2/c(=N/c3ccc(Br)cc3F)nc[nH]c2cc1OCC1CCN(C)CC1 [Vandetanib] + NC(=O)Nc1cc(-c2cccc(F)c2)sc1C(=O)N[C@H]1CCCNC1 [AZD7762] (partner 0.2 µM)
In short: as §1

[1] = compound: C1=CC=C2C(=C1)N=C(S2)C(C#N)C3=NC(=NC=C3)NCCC4=CN=CC=C4 + CC1(C)CCC(c2ccc(Cl)cc2)=C(CN2CCN(c3ccc(C(=O)NS(=O)(=O)c4ccc(N[C@H](CCN5CCOCC5)CSc5ccccc5)c(S(=O)(=O)C(F)(F)F)c4)cc3)CC2)C1 [Navitoclax] (partner 0.5 µM)
In short: as §1

CUDC-101 + Palbociclib = compound: C#Cc1cccc(Nc2ncnc3cc(OC)c(OCCCCCCC(=O)NO)cc23)c1 [CUDC-101] + CC(=O)c1c(C)c2cnc(Nc3ccc(N4CCNCC4)cn3)nc2n(C2CCCC2)c1=O [Palbociclib] (partner 0.5 µM)
In short: as §1

EMC-BAC-2 showed a relative viability (NVP-TAE684 + Trametinib; first compound 0.2 µM) of 0.89, a relative viability (NVP-TAE684 + Trametinib; first compound 0.6325 µM) of 0.822 and a relative viability (NVP-TAE684 + Trametinib; first compound 2 µM) of 0.47. It also gave a relative viability (Vandetanib + AZD7762; first compound 0.02 µM) of 1.08, a relative viability (Vandetanib + AZD7762; first compound 0.06325 µM) of 1.08 and a relative viability (Vandetanib + AZD7762; first compound 0.2 µM) of 1.12. For the same cell line, the relative viability (Vandetanib + AZD7762; first compound 0.6325 µM) was 1.11, the relative viability (Vandetanib + AZD7762; first compound 2 µM) was 0.973 and the relative viability ([1]; first compound 0.005 µM) was 0.823. The relative viability ([1]; first compound 0.01581 µM) was 1.19, the relative viability ([1]; first compound 0.05 µM) was 1.14 and the relative viability ([1]; first compound 0.1581 µM) was 1.2. It also gave a relative viability ([1]; first compound 0.5 µM) of 1.01, a relative viability (CUDC-101 + Palbociclib; first compound 0.01 µM) of 0.546 and a relative viability (CUDC-101 + Palbociclib; first compound 0.03162 µM) of 0.514. The relative viability (CUDC-101 + Palbociclib; first compound 0.1 µM) was 0.502, the relative viability (CUDC-101 + Palbociclib; first compound 0.3162 µM) was 0.502 and the relative viability (CUDC-101 + Palbociclib; first compound 1 µM) was 0.375.

PC-14 was tested, and the relative viability (NVP-TAE684 + Trametinib; first compound 0.2 µM) was 0.677, the relative viability (NVP-TAE684 + Trametinib; first compound 0.6325 µM) was 0.62 and the relative viability (NVP-TAE684 + Trametinib; first compound 2 µM) was 0.0712. It also gave a relative viability (Vandetanib + AZD7762; first compound 0.02 µM) of 0.361, a relative viability (Vandetanib + AZD7762; first compound 0.06325 µM) of 0.282 and a relative viability (Vandetanib + AZD7762; first compound 0.2 µM) of 0.25. It also gave a relative viability (Vandetanib + AZD7762; first compound 0.6325 µM) of 0.164, a relative viability (Vandetanib + AZD7762; first compound 2 µM) of 0.13 and a relative viability ([1]; first compound 0.005 µM) of 0.808. For the same cell line, the relative viability ([1]; first compound 0.01581 µM) was 1.13, the relative viability ([1]; first compound 0.05 µM) was 1.09 and the relative viability ([1]; first compound 0.1581 µM) was 1.09. For the same cell line, the relative viability ([1]; first compound 0.5 µM) was 0.851, the relative viability (CUDC-101 + Palbociclib; first compound 0.01 µM) was 0.629 and the relative viability (CUDC-101 + Palbociclib; first compound 0.03162 µM) was 0.425. The relative viability (CUDC-101 + Palbociclib; first compound 0.1 µM) was 0.338, the relative viability (CUDC-101 + Palbociclib; first compound 0.3162 µM) was 0.0958 and the relative viability (CUDC-101 + Palbociclib; first compound 1 µM) was 0.0539.

201T showed a relative viability (NVP-TAE684 + Trametinib; first compound 0.2 µM) of 0.712, a relative viability (NVP-TAE684 + Trametinib; first compound 0.6325 µM) of 0.716 and a relative viability (NVP-TAE684 + Trametinib; first compound 2 µM) of 0.629. For the same cell line, the relative viability (Vandetanib + AZD7762; first compound 0.02 µM) was 0.675, the relative viability (Vandetanib + AZD7762; first compound 0.06325 µM) was 0.62 and the relative viability (Vandetanib + AZD7762; first compound 0.2 µM) was 0.626. For the same cell line, the relative viability (Vandetanib + AZD7762; first compound 0.6325 µM) was 0.588, the relative viability (Vandetanib + AZD7762; first compound 2 µM) was 0.614 and the relative viability ([1]; first compound 0.005 µM) was 1.14. It also gave a relative viability ([1]; first compound 0.01581 µM) of 1.22, a relative viability ([1]; first compound 0.05 µM) of 1.14 and a relative viability ([1]; first compound 0.1581 µM) of 1.24. For the same cell line, the relative viability ([1]; first compound 0.5 µM) was 1.2, the relative viability (CUDC-101 + Palbociclib; first compound 0.01 µM) was 0.332 and the relative viability (CUDC-101 + Palbociclib; first compound 0.03162 µM) was 0.38. For the same cell line, the relative viability (CUDC-101 + Palbociclib; first compound 0.1 µM) was 0.347, the relative viability (CUDC-101 + Palbociclib; first compound 0.3162 µM) was 0.344 and the relative viability (CUDC-101 + Palbociclib; first compound 1 µM) was 0.353.

Work on LXF-289 yielded a relative viability (NVP-TAE684 + Trametinib; first compound 0.2 µM) of 0.608, a relative viability (NVP-TAE684 + Trametinib; first compound 0.6325 µM) of 0.7 and a relative viability (NVP-TAE684 + Trametinib; first compound 2 µM) of 0.624. The relative viability (Vandetanib + AZD7762; first compound 0.02 µM) was 1.07, the relative viability (Vandetanib + AZD7762; first compound 0.06325 µM) was 1.08 and the relative viability (Vandetanib + AZD7762; first compound 0.2 µM) was 1.04. For the same cell line, the relative viability (Vandetanib + AZD7762; first compound 0.6325 µM) was 1.1, the relative viability (Vandetanib + AZD7762; first compound 2 µM) was 1.01 and the relative viability ([1]; first compound 0.005 µM) was 0.857. For the same cell line, the relative viability ([1]; first compound 0.01581 µM) was 0.972, the relative viability ([1]; first compound 0.05 µM) was 0.95 and the relative viability ([1]; first compound 0.1581 µM) was 1. The relative viability ([1]; first compound 0.5 µM) was 0.892, the relative viability (CUDC-101 + Palbociclib; first compound 0.01 µM) was 0.6 and the relative viability (CUDC-101 + Palbociclib; first compound 0.03162 µM) was 0.604. For the same cell line, the relative viability (CUDC-101 + Palbociclib; first compound 0.1 µM) was 0.571, the relative viability (CUDC-101 + Palbociclib; first compound 0.3162 µM) was 0.589 and the relative viability (CUDC-101 + Palbociclib; first compound 1 µM) was 0.515.
